{
  "source": "patent US7781186B2",
  "about": "“Screening methods using normal human liver cell line” (The United States of America as represented by the …, priority 2000, dated 2010)",
  "key": {"[1]": {"test_system": "mitochondrial permeability transition pore", "test": "Membrane permeability transition (mPT), large amplitude swelling at 540 nm, isolated liver mitochondria", "format": "biochemical, mouse", "description": "(§1) To explore whether LEF (the prodrug) or its active metabolite A77-1726 alter mitochondrial function including the Ca^2+ dependent, cyclosporine A-sensitive mPT, we isolated mouse liver mitochondria and exposed them to LEF or A77-1726, and measured the concentration-dependent effects on the mitochondrial inner transmembrane potential (ΔΨm) using the cationic fluorescent probe, JC-1. Furthermore, the effects on the inductin of the mPT were assessed by monitoring large amplitude swelling at 540 nm. In addition, the effects of LEF were determined in cultured immortalized human hepatocytes (HC04 cell line)."}, "[2]": {"test_system": "mitochondria", "test": "mPT-mediated cytochrome c release from mitochondria", "format": "biochemical", "description": "(§2) The cell line of the invention can further be used in a method for assessing toxicity of chemicals or drugs using methods known in the art. For example, lactate dehydrogenase (LDH) leakage from cells into the culture medium is an established method to assess cell injury. Enzyme activity in the culture medium following exposure of cells to a chemical for a certain time will be expressed as percentage of the total of intra- and extracellular enzyme activity. Another example is the determination of cytochrome c release from mitochondria into the cytosol, which is a measure of mitochondria-mediated induction of lethal cell injury. Cells can be exposed to various concentrations of a chemical for various time points. The cells can then be harvested, homogenized, and mitochondria and cytosol isolated by differential centrifugation. The subcellular fractions can then be lysed, loaded onto SDS-PAGE gels, and probed with a specific antibody against cytochrome c.\nBoth LEF and A77-1726 attenuated the ΔΨm (at ≧1 uM)."}, "[3]": {"test_system": "mouse liver mitochondria", "test": "Mitochondrial inner transmembrane potential (ΔΨm), JC-1 probe, isolated liver mitochondria", "format": "biochemical", "settings": "in vitro", "description": "as §1, with “[…]-1726” for “A77-1726”, “[…]-1726,” for “A77-1726,”, “nm.” for “nm. In addition, the effects of LEF were determined in cultured immortalized human hepatocytes (HC04 cell line).”"}, "[4]": {"test_system": "HC04 cell line", "test": "Acetaminophen-induced mPT-associated cytotoxicity in cultured immortalized human hepatocytes", "format": "cell-based", "description": "Furthermore, the effects on the inductin of the mPT were assessed by monitoring large amplitude swelling at 540 nm. In addition, the effects of LEF were determined in cultured immortalized human hepatocytes (HC04 cell line)."}, "[5]": {"test_system": "HepG2 cells", "format": "cell-based, human", "description": "as §2\nTo determine whether HC04 cells would respond to a standard hepatotoxicant in vitro, the concentration- and time-dependent toxicity of acetaminophen (APAP) was assessed and compared to that in HepG2 cells."}},
  "data": [
    {"smiles": "Cc1oncc1C(=O)Nc1ccc(C(F)(F)F)cc1", "note": "[LEF, Leflunomide]", "values": [
      {"measurement": "inhibition of the mPT (summary)", "setting": "[1]; in vitro", "result": "potent inhibitors"},
      {"measurement": "protection from the mPT", "setting": "[1]; mPT caused by KH2PO4 (2 mM)", "result": "completely protected"},
      {"measurement": "protection from the mPT", "setting": "[1]; mPT caused by nimesulide (30 uM)", "result": "completely protected"},
      {"measurement": "protection from mPT-mediated cytochrome c release from mitochondria", "setting": "[2]", "result": "protected"},
      {"measurement": "uncoupling (summary)", "setting": "[3]", "result": "weak uncouplers"},
      {"measurement": "protection from acetaminophen-induced mPT-associated cytotoxicity", "setting": "[4]", "result": "completely protected"}
    ]},
    {"smiles": "CC(=O)Nc1ccc(O)cc1", "note": "[APAP, acetaminophen]", "values": [
      {"measurement": "LDH release (indicative of cell injury)", "setting": "[5]", "result": "did not respond"}
    ]}
  ]
}
